Test results taken from patent publication US9399644B2, “[1,3] dioxolo [4,5-G] quinoline-6(5H)thione derivatives as inhibitors of the late SV40 factor (LSF) for use in treating cancer” (TRUSTEES OF BOSTON UNIVERSITY, priority 2011, dated 2016).

What was measured:
LSF = target: T1, LSF (Homo sapiens, UniProt Q12800); test: LSF-dependent reporter assay (dual luciferase); assay type: cell-based; conditions: for LSF inhibition (result in words): NIH 3T3 cells transfected with LSF expression vector and LSF-driven firefly luciferase reporter, FIGS. 5-7
T1 construct: expressed in transfected cells; host or cells: NIH 3T3 cells
T1 sequence (Q12800 1-502): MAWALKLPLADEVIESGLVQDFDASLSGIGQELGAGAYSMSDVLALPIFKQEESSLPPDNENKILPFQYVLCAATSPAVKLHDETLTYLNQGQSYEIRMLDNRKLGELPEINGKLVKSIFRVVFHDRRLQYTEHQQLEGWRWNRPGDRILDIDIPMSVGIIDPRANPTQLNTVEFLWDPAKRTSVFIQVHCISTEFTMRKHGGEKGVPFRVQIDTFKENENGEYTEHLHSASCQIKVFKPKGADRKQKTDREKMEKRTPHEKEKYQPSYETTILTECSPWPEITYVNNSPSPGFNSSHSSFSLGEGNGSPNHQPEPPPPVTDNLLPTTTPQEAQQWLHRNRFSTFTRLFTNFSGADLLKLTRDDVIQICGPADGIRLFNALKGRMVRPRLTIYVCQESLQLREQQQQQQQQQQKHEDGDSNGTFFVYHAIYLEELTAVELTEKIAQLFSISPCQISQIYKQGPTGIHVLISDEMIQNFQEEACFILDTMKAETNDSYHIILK
Procedure: NIH 3T3 cells were transfected with the expression construct pEF1α-LSF, an LSF expression vector^1,2; the reporter construct pGL3B-WT4E1b, a firefly luciferase reporter vector driven by LSF^3; phRL-TK, a control renilla luciferase reporter vector; and pEFGP, essentially as previously described^3. Five hours after transfection, either vehicle (DMSO) or compounds (VI, I and II, IV and V) were added (FIG. 7, FIG. 5 and FIG. 6, respectively), keeping DMSO at 0.5%. Cell extracts were harvested 36 hours post-transfection and firefly and renilla luciferase activities measured via a dual luciferase assay (Promega). Five μl of extract was mixed with 30 μl of luciferase assay reagent (Promega), and luminescence measured for 10 seconds using a 20/20n luminometer (Turner Biosystems). Subsequently, 30 μl of Stop & Glo reagent (Promega) was added, and luminescence also measured for 10 seconds. LSF transactivation activity is given as relative luciferase activity, the ratio of firefly to renilla activities, and normalized to the relative luciferase activity in the presence of vehicle alone. Data for this assay are shown in graphically in FIGS. 5-7.

[1] = test system: hepatocellular carcinoma (HCC); conditions: single treatment; cited from earlier work

LSF inhibition (result in words) (LSF) | SMILES | other results
particularly strong LSF inhibitors | CCOc1ccccc1C1CC(=S)Nc2cc3c(cc21)OCO3 (racemic) [racemic mixture of compounds I and II, 8-(2-ethoxyphenyl)-7,8-dihydro-[1,3]dioxolo[4,5-g]quinoline-6(5H)-thione] | effectiveness as LSF inhibitor compared with the racemic mixture of compounds IV and V (FIG. 6) and Compound VI (FIG. 7) (LSF; FIG. 5 versus FIG. 6 and FIG. 7): about 10 times; rank among LSF inhibitors observed by the applicants (LSF; experiments thus far performed by the applicants): strongest LSF inhibitor so far observed
 | CNC(=O)c1cc(Oc2ccc(NC(=O)Nc3ccc(Cl)c(C(F)(F)F)c3)cc2)ccn1 [sorafenib] | increase of survival [1]: 2-3 months
exhibit properties as LSF inhibitors | CCOc1ccccc1[C@@H]1CC(=S)Nc2cc3c(cc21)OCO3 [Compound I] | 
exhibit properties as LSF inhibitors | CCOc1ccccc1[C@H]1CC(=S)Nc2cc3c(cc21)OCO3 [Compound II] | 
exhibit properties as LSF inhibitors | CCOc1ccccc1[C@H]1Cc2nncn2-c2cc3c(cc21)OCO3 [Compound V] | 
exhibit properties as LSF inhibitors | CCOc1ccccc1[C@@H]1Cc2nncn2-c2cc3c(cc21)OCO3 [IV] | 
exhibit properties as LSF inhibitors | CCOc1ccccc1-c1cc(=S)[nH]c2cc3c(cc12)OCO3 [Compound III, 8-(2-ethoxyphenyl)-[1,3]dioxolo[4,5-g]quinolin-6(5H)-thione] | 
